According to patent publication US8530419B2, “Process for the synchronization of ovulation for timed breeding without heat detection” (priority 2003, dated 2013):

Legend:
Assay type in all cases: in vivo, swine
[1] = tested on: ovariectomized estrogen primed gilt; experiment: Dose response study of LH release in ovariectomized estrogen primed gilt model (RIA); conditions: single injection of 50 mcg deslorelin in SAIB
Method: A dose response study was performed using deslorelin in SAIB in an ovariectomized estrogen primed gilt model (Barb, et at (1999) Proceed. Int'l. Symp. Control, Rel. Bioact. Mater., 26).

[2] = tested on: postpartum sows; experiment: Timed deslorelin injection 96 hours post-weaning, single timed insemination without estrus detection (Example 3)
Method: Approximately 170 postpartum sows were randomly divided into two equal groups comprised of controls and treated. Following weaning, the controls were detected for estrus and bred following the normal standard operating procedures for the farms on winch they resided. The treated sows received a 50 mcg dose of deslorelin in SAIB at 96 hours post-weaning and were bred with a single insemination 28+/−2 hours later with no regard to estrus detection. The sows were examined for pregnancy by ultrasound at 21 days and slaughtered around 28 days post breeding. The entire reproductive tract was removed and corpora lutea and embryos were counted.

[3] = tested on: postpartum sows; experiment: Litter size after deslorelin treatment at three farm sites (Example 4); conditions: Tables 3, 4 and 5; regardless of estrus detection
Source text: Postpartum sows were randomly distributed into three different groups comprised of Controls, Treatment 1, and Treatment 2, with the exception of Site 3, which was divided into two groups, Control and Treatment 2. Control sows were detected for estrus following weaning, and bred following the normal standard operating procedures for the farms on which they resided. Treatment 1 sows were detected for estrus following weaning, and received a 50 mcg dose of deslorelin in the morning when standing and were bred by AI 4 hours later and again at 24+/−2 hours later. Treatment 2 sows received a 50 mcg dose of deslorelin in SAIB at 96 or 120 hours post-weaning and were bred with a single insemination 28+/−2 hours later with no regard to estrus detection.

CCNC(=O)[C@@H]1CCCN1C(=O)[C@H](CCCN=C(N)N)NC(=O)[C@H](CC(C)C)NC(=O)[C@@H](Cc1c[nH]c2ccccc12)NC(=O)[C@H](Cc1ccc(O)cc1)NC(=O)[C@H](CO)NC(=O)[C@H](Cc1c[nH]c2ccccc12)NC(=O)[C@H](Cc1cnc[nH]1)NC(=O)[C@@H]1CCC(=O)N1 [Deslorelin, deslorelin]
time at which LH returned to base level [1]: ≤ 18 h | LH peak ([1]; compared to Hansel et al. (1973)): about twice normal value | Pregnancy Rate ([2]; 50 mcg in SAIB at 96 hours post-weaning, single insemination 28+/-2 hours later, no estrus detection): 71% | Embryo Survival ([2]; 50 mcg in SAIB at 96 hours post-weaning, slaughtered around 28 days post breeding): 64% | pregnancy rates (in words) ([2]; single timed injection post-weaning, single timed insemination, no estrus detection): normal pregnancy rates were attained | litter sizes (in words) [3]: normal litter sizes
